Values quoted from earlier work in patent US11497761B2, “Compositions for the treatment of metastatic cancer” (priority 2019, dated 2022).

Legend:
[1] = test system: Ehrlich ascites tumor cells; settings: in vitro, Kato et al. 1971; cited from earlier work
[2] = test system: PGC-1α; settings: cultured C2C12 myotubes; cited from earlier work
[3] = Kato et al. 1971; cited from earlier work

| Compound | anticancer activity [1] | also measured |
| --- | --- | --- |
| CCCCCCCCCCCCCCCC(=O)O [Hexadecanoic, Hexadecanoic acid] | most active | – |
| CCCCCCCCCCCC(=O)O [lauric acid, dodecanoic acid] | – | expression of PGC-1α [2]: did not alter expression |
| octadecadienoic acid | most active | – |
| CCCCCCCCCCCCCCCCCC(=O)O [octadeconoic, octadeconoic acid] | most active | – |
| CCCCCCCC/C=C\CCCCCCCC(=O)O [octadecenoic, octadecenoic acid] | – | solubility [3]: poorly soluble |
| lauric sucrose ester | only weak activity | – |
